Key:
Conditions in all cases: 72 h
Caco-2 [1] = experiment: cell viability relative to DMSO; higher = less toxic
Calu-3 [2] = experiment: as above
HepG2 [3] = experiment: as above
U2OS [4] = experiment: as above
Vero E6 [5] = experiment: as above
Caco-2 [6] = experiment: relative viability EC50 (midpoint between 100% and the lowest measured viability); higher = less toxic
Calu-3 [7] = experiment: as above
HepG2 [8] = experiment: as above
U2OS [9] = experiment: as above
Vero E6 [10] = experiment: as above
Caco-2 [11] = experiment: drug sensitivity score (DSS) for viability; higher = more toxic; extreme values may be limits of the assay
Calu-3 [12] = experiment: as above
HepG2 [13] = experiment: as above
U2OS [14] = experiment: as above
Vero E6 [15] = experiment: as above

SMILES	cell viability (Caco-2 [1]; 1 nM) [%]	cell viability (Caco-2 [1]; 10 nM) [%]	cell viability (Caco-2 [1]; 100 nM) [%]	cell viability (Caco-2 [1]; 1000 nM) [%]	cell viability (Caco-2 [1]; 10000 nM) [%]	cell viability (Calu-3 [2]; 1 nM) [%]	cell viability (Calu-3 [2]; 10 nM) [%]	cell viability (Calu-3 [2]; 100 nM) [%]	cell viability (Calu-3 [2]; 1000 nM) [%]	cell viability (Calu-3 [2]; 10000 nM) [%]	cell viability (HepG2 [3]; 1 nM) [%]	cell viability (HepG2 [3]; 10 nM) [%]	cell viability (HepG2 [3]; 100 nM) [%]	cell viability (HepG2 [3]; 1000 nM) [%]	cell viability (HepG2 [3]; 10000 nM) [%]	cell viability (U2OS [4]; 1 nM) [%]	cell viability (U2OS [4]; 10 nM) [%]	cell viability (U2OS [4]; 100 nM) [%]	cell viability (U2OS [4]; 1000 nM) [%]	cell viability (U2OS [4]; 10000 nM) [%]	cell viability (Vero E6 [5]; 1 nM) [%]	cell viability (Vero E6 [5]; 10 nM) [%]	cell viability (Vero E6 [5]; 100 nM) [%]	cell viability (Vero E6 [5]; 1000 nM) [%]	cell viability (Vero E6 [5]; 10000 nM) [%]	relative viability EC50 (Caco-2 [6]) [µM]	relative viability EC50 (Calu-3 [7]) [µM]	relative viability EC50 (HepG2 [8]) [µM]	relative viability EC50 (U2OS [9]) [µM]	relative viability EC50 (Vero E6 [10]) [µM]	drug sensitivity score (Caco-2 [11])	drug sensitivity score (Calu-3 [12])	drug sensitivity score (HepG2 [13])	drug sensitivity score (U2OS [14])	drug sensitivity score (Vero E6 [15])
CC(=O)OCC(=O)NCCCOc1cccc(CN2CCCCC2)c1 [roxatidine-acetate]	103	91.5	97.1	101	93.9	107	111	103	99.5	99.8	94.3	107	95.5	95.4	91.1	96	95	98.7	93.9	97.6	106	106	99.1	103	99.2	> 10	> 10	> 10	> 10	> 10	0	0	0	0	0
C#C[C@]1(OC(C)=O)CC[C@H]2[C@@H]3CCC4=C[C@@H](OC(C)=O)CC[C@@H]4[C@H]3CC[C@@]21C [ethynodiol-diacetate]	88.6	96.9	92.4	100	88.8	99.4	132	103	99.6	102	104	104	97.3	103	107	99	98.7	99.6	97.6	92.4	98.6	103	104	98.6	108	> 10	> 10	> 10	> 10	> 10	0	0	0	0	0
Cc1cc(C(C)(C)CC(C)(C)C)ccc1OCCOCC[N+](C)(C)Cc1ccccc1 [methylbenzethonium-chloride]	95.2	102	99.3	85	42.5	103	103	91.4	89.8	80.5	92	105	98.1	108	81.2	101	94.7	102	98.9	82.2	95.9	98.5	92.2	98.3	106	1.51	> 10	> 10	> 10	> 10	5.4	1.3	0.3	0.6	0
C[N+]1(C)CCC(=C(c2ccccc2)c2ccccc2)CC1 [diphemanil]	97.2	100	95.7	101	93.6	95.3	107	110	96.1	102	113	98.1	108	97.6	110	101	99.7	95.5	97.7	97.4	105	108	103	99.9	102	> 10	> 10	> 10	> 10	> 10	0	0	0	0	0
CC12CCC(C(=O)N(CCCCN3CCN(c4ccccn4)CC3)C1=O)C2(C)C (stereo not given) [piricapiron]	87.3	99.7	96.5	98.1	93	100	105	101	93.2	85.9	106	101	101	102	97.6	101	103	99.1	101	95.6	97.2	99.8	101	93.5	104	> 10	> 10	> 10	> 10	> 10	0	0.6	0	0	0
Cc1cc(Cn2nnc3c(-c4ccco4)nc(N)nc32)ccc1N [vipadenant]	110	106	115	113	97.1	108	103	108	94.1	107	81.9	80.5	99	91.8	96.3	99.6	97.7	98.2	98.7	101	109	105	99.7	92.8	88.7	> 10	> 10	> 10	> 10	> 10	0	0	0	0	0.2
Cc1ccc2c(c1)c1c(n2CCc2ccc(C)nc2)CCN(C)C1 [latrepirdine]	106	99.4	97.9	96	91	97.5	97.4	101	103	95.4	108	102	118	98.8	99.7	100	100	97.7	95.8	93.7	98	102	104	96.5	93.6	> 10	> 10	> 10	> 10	> 10	0	0	0	0	0
C/C(O)=C(\C#N)C(=O)Nc1ccc(C(F)(F)F)cc1 [teriflunomide]	98.1	98.2	102	95.1	94.1	104	97.2	95.3	105	94.2	104	107	93.4	98.1	94.4	102	98	102	99.8	99.7	102	101	97.1	98.2	93.9	> 10	> 10	> 10	> 10	> 10	0	0	0	0	0
CCCC(=O)Nc1cccc(NC(=O)c2ccccc2Br)c1 [ML161]	93.6	95.5	89.6	96.6	94	95.4	101	89.2	101	105	91.6	98	94.9	94.2	103	95.3	97.7	95.8	98.8	94.2	100	96.1	103	98.9	97.7	> 10	> 10	> 10	> 10	> 10	0	0	0	0	0
Cc1cc(C(C#N)c2ccc(Cl)cc2)c(Cl)cc1NC(=O)c1cc(I)cc(I)c1O (stereo not given) [closantel]	97.4	99.6	99.8	97.5	100	90.9	95.5	92.3	92.4	95.3	95	95.5	102	86.4	107	93.3	96.7	97.4	98.8	104	101	98.2	96.2	93.7	101	> 10	> 10	> 10	> 10	> 10	0	0	0	0	0
Cc1ccc(-n2sc(=O)n(Cc3ccc(F)cc3)c2=O)cc1	99.1	97.7	98.4	100	95.9	104	83.1	110	98.9	94.3	89.2	107	95.9	96.1	96.1	97.9	98.7	99.6	96.1	108	96.4	97.7	97.1	99.1	93.5	> 10	> 10	> 10	> 10	> 10	0	0	0	0	0
O=P(O)(O)C(Cl)(Cl)P(=O)(O)O [clodronic-acid]	98	103	96.3	100	100	94.3	97.1	96.5	96.1	109	99.2	96.6	98.6	101	102	99.4	102	105	101	103	108	103	97.7	101	99.1	> 10	> 10	> 10	> 10	> 10	0	0	0	0	0
Nc1ccc(S(=O)(=O)c2ccc(N)cc2)cc1 [dapsone]	106	95.6	104	100	91.7	104	98.6	90.4	106	101	112	107	93.2	106	96.6	99.3	97.1	95.8	96.2	100	98.5	106	105	106	100	> 10	> 10	> 10	> 10	> 10	0	0	0	0	0
CC(C)C[C@H](NC(=O)[C@@H](Cc1c[nH]c2ccccc12)NC(=O)[C@H](Cc1ccc(O)cc1)NC(=O)[C@H](CO)NC(=O)[C@H](Cc1c[nH]c2ccccc12)NC(=O)[C@H](Cc1c[nH]cn1)NC(=O)[C@@H]1CCC(=O)N1)C(=O)N[C@@H](CCCNC(=N)N)C(=O)N1CCC[C@H]1C(=O)NCC(N)=O [triptorelin]	95.7	110	92.8	102	110	90.2	80.1	90	99.2	106	102	86.3	93	110	120	91.2	102	96.8	99.2	108	94.5	98.5	98	74.8	107	> 10	> 10	> 10	> 10	> 10	0	0	0	0	0

Reference: the supplement of paper PMC13380429
